Our source for the Kd values is PubChem BioAssay AID1648 (Sanford-Burnham Center for Chemical Genomics, 2009).

Calls of active or inactive are those of the source. No rule for the calls is given here. Some results are limits rather than exact numbers.

The term Kd denotes the constant that tells how readily two partners part at equilibrium.

Sequence of Serine/threonine-protein kinase mTOR (Homo sapiens) (P42345 2015-2114): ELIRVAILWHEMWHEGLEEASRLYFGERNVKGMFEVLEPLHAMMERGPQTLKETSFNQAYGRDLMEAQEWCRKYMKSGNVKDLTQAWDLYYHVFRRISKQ

This assay concerns the target Serine/threonine-protein kinase mTOR (Homo sapiens) (UniProt P42345). Briefly: binders of mTOR FRB domain, biophysical, NMR (AID 1648). To be noted: NMR binding to FRB domain, chemical shift.
Turning to `O=[n+]1c2c(n([O-])c3ccccc31)CCCC2`, the Kd was > 4 mM (inactive).

As to `NC(=O)C1CCN(C(=S)c2cccs2)CC1`, the Kd was > 4 mM (inactive).

As for `O=C1NC(=Nc2ccccc2)S/C1=C/c1cccnc1`, the Kd is > 4 mM (inactive).

Turning to `Nc1ncnc(NCCOCCO)c1[N+](=O)[O-]`, the Kd was > 4 mM (inactive).

As to `Cc1cc(C)n2nc(SCC(=O)c3ccccc3)nc2n1`, the Kd was > 4 mM (inactive).

For the molecule `Cc1ccc(Nc2nc(N)nc(CC#N)n2)cc1`, the Kd is > 4 mM (inactive).

On to `C[C@H]1C[C@@H](O)[C@]2(O)[C@@]13CC(=O)OC[C@@]2(C)[C@](C)(O)C(=O)C3`, for which the Kd is > 4 mM (inactive).

As for `O=C1CSC(=Nc2cccc(C(=O)O)c2)N1`, the Kd was > 4 mM (inactive).

On to `O=C(Nn1c(=S)[nH]c2ccccc2c1=O)c1ccncc1`, for which the Kd is > 4 mM (inactive).

`Cc1ccc(N2C(=O)C3C4C=CC(O4)C3C2=O)cc1` (centres undefined): the Kd is > 4 mM (inactive).

Regarding `O=C1CCCc2c1nc(-c1ccccc1)n2O`, the Kd was > 4 mM (inactive).

As for `Cc1cc(=O)n(CCc2ccccc2)c(O)c1C#N`, the Kd was > 4 mM (inactive).

For `CC(=O)c1csc(-c2cc(C)on2)n1`, the Kd is > 4 mM (inactive).

As for `CC(C)c1ccc2c(c1)CCC1[C@](C)(CN)CCC[C@]21C` (some centres undefined), the Kd is > 4 mM (inactive).

`C=C1CCC(C2CC(=O)OC2=O)C(=O)CCC2C1CC2(C)C` (centres undefined): the Kd was > 4 mM (inactive).

Regarding `Cc1c(C(=O)Nc2ccncc2)oc2c1C(=O)CC(C)(C)C2`, the Kd was > 4 mM (inactive).

`O=C(Nc1ccccc1)c1cnc2n(c1=O)CCS2`: the Kd is > 4 mM (inactive).

With `O=C1Cc2ccccc2N1c1ccccc1`, the Kd was > 4 mM (inactive).

As for `O=C(O)CCSc1nc2ccccc2s1`, the Kd was > 4 mM (inactive).

With `Cc1ccc(SCCN2C(=O)NC(C)(C)C2=O)cc1`, the Kd is > 4 mM (inactive).

Take `O=C(O)c1cccnc1N1CCOCC1`: the Kd is > 4 mM (inactive).

Regarding `Cc1cc(C(=O)N2CCN(c3ncccn3)CC2)c(C)o1`, the Kd is > 4 mM (inactive).

As for `CCn1nnc(NC(=O)c2cc3ccccc3o2)n1`, the Kd was > 4 mM (inactive).

In the case of `Cc1nnsc1-c1onc(C)c1C(=O)O`, the Kd is > 4 mM (inactive).

Turning to `O=C(Nc1nncs1)c1c(F)cccc1F`, the Kd is > 4 mM (inactive).

For `CCOC(=O)C1CN(C)CCN1C` (centres undefined), the Kd is > 4 mM (inactive).

Consider `O=P(O)(Cc1ccccc1)c1ccccc1`, for which the Kd was > 4 mM (inactive).

Turning to `Cn1c(=O)[nH]c(=O)c2c1ncn2CCN1CCCCC1`, the Kd was > 4 mM (inactive).

As for `C[N+](C)(C)CC(O)CC(=O)O` (centres undefined), the Kd is > 4 mM (inactive).

`Cc1ccc(C(=O)Nc2c[nH]c(=O)[nH]c2=O)cc1`: the Kd is > 4 mM (inactive).

With `Nc1cccc(F)c1-c1ncon1`, the Kd was > 4 mM (inactive).

Take `CC1=C(C(N)=O)C(c2ccco2)C(C(N)=O)=C(C)N1`: the Kd is > 4 mM (inactive).

For the molecule `C=C1CCC2C(CC2(C)C)C(=O)CCC1O` (centres undefined), the Kd is > 4 mM (inactive).

Consider `Cc1[nH]n(-c2ccccc2)c(=O)c1[N+](=O)[O-]`, for which the Kd was > 4 mM (inactive).

Regarding `O=C(Nc1ncccn1)c1cccc(F)c1`, the Kd is > 4 mM (inactive).

Consider `CC(=O)c1ccc(-n2ccnc2)cc1`, for which the Kd is > 4 mM (inactive).

On to `C[C@@H]1[C@H]2[C@H](O[C@@H]3O[C@H](CO)[C@@H](O)[C@H](O)[C@H]3O)OC=C(C(=O)O)[C@H]2C[C@@H]1O`, for which the Kd was > 4 mM (inactive).

As to `C=C1C2CC[C@@]3(C)[C@H](c4ccoc4)OC(=O)C[C@]13O[C@H]1CC(O)C(C)(C)C(CC(=O)OC)[C@@]21C` (some centres undefined), the Kd is > 4 mM (inactive).

Take `Cc1noc(C)c1C(=O)Nc1ccccc1-c1ccccc1`: the Kd is > 4 mM (inactive).

As to `CCOC(=O)c1csc(C2COc3ccccc3O2)n1` (centres undefined), the Kd was > 4 mM (inactive).

As for `O=C(c1cccnc1Cl)N1CCOCC1`, the Kd is > 4 mM (inactive).

As for `O=C(Nc1c[nH]c(=O)[nH]c1=O)c1cccs1`, the Kd is > 4 mM (inactive).

Consider `Cc1cc(CN2C(=O)c3ccccc3C2=O)on1`, for which the Kd was > 4 mM (inactive).

As to `O=C1CCNc2cc3ccccc3cc21`, the Kd is > 4 mM (inactive).

As for `OC[C@@H]1CCCN2CCCC[C@H]12`, the Kd is > 4 mM (inactive).

`O=c1c(-c2ccc(O)cc2)coc2cc(O)ccc12`: the Kd is > 4 mM (inactive).

Take `COC(=O)c1cc(-c2c(C)nn(-c3ccccc3)c2C)n[nH]1`: the Kd was > 4 mM (inactive).

In the case of `O=c1cc(-c2ccc(O)cc2)oc2cc(O[C@@H]3O[C@H](CO)[C@@H](O)[C@H](O)[C@H]3O[C@@H]3OC[C@](O)(CO)[C@H]3O)cc(O)c12`, the Kd is > 4 mM (inactive).

For `CN1CCN(C(=O)c2ccccc2N)CC1`, the Kd was > 4 mM (inactive).

Turning to `OCc1ccc(N2CCOCC2)nc1`, the Kd was > 4 mM (inactive).

`COc1ccc2c(c1)[n+](=O)c(C(C)=O)c(C)n2[O-]`: the Kd is > 4 mM (inactive).

On to `CCn1c(-c2ccccc2)n[nH]c1=S`, for which the Kd was > 4 mM (inactive).

For the molecule `O=C(C1CCCCC1)N1CCN(c2ccccc2F)CC1`, the Kd was > 4 mM (inactive).

For the molecule `CC(=O)Nc1c(Cl)cnn(-c2ccccc2)c1=O`, the Kd is > 4 mM (inactive).

Regarding `O=C(O)c1snnc1-c1ccccc1`, the Kd was > 4 mM (inactive).

For the molecule `S=c1nc2c(n[nH]1)[nH]c1ccccc12`, the Kd was > 4 mM (inactive).

With `Cc1nc2cc(NC(=O)Nc3nccs3)ccc2n1C`, the Kd was > 4 mM (inactive).

As for `CSc1nc(C)c(Oc2ccccc2)c(=O)n1C`, the Kd was > 4 mM (inactive).

On to `COC(=O)Cc1cc(=O)n(-c2nc3ccccc3s2)[nH]1`, for which the Kd was > 4 mM (inactive).

`CNC(=S)N1CCN=C1Nc1nc(C)cc(C)n1`: the Kd was > 4 mM (inactive).

For the molecule `CC(=O)c1cc2c(s1)SCC(=O)N2`, the Kd is > 4 mM (inactive).

Regarding `CC1(C)C=Cc2c(cc3occ(-c4ccc5c(c4)OCO5)c(=O)c3c2O)O1`, the Kd is > 4 mM (inactive).

In the case of `COc1ccc(NC2=NCC(C)S2)cc1` (centres undefined), the Kd is > 4 mM (inactive).

Consider `COc1ccccc1-c1cn[nH]c(=S)n1`, for which the Kd is > 4 mM (inactive).

For the molecule `c1ccc(Cc2nnc3sc(-c4ccncc4)nn23)cc1`, the Kd is > 4 mM (inactive).

Turning to `O=C1CNCc2[nH]c3ccccc3c2N1c1ccccc1`, the Kd is > 4 mM (inactive).

As to `CCOC(=O)CSCC(=O)Nc1nccs1`, the Kd was > 4 mM (inactive).

For `Cc1[nH]c2ccccc2c1CN(C)C`, the Kd was > 4 mM (inactive).

In the case of `NC1=NC(=O)C(Cc2ccccc2)S1` (centres undefined), the Kd was > 4 mM (inactive).

On to `O=c1c2c(nc3nc(Cc4ccccc4)[nH]n13)CCC2`, for which the Kd was > 4 mM (inactive).

In the case of `[O-][n+]1cc(O)c(CN2CCOCC2)c2ccccc21`, the Kd is > 4 mM (inactive).

Regarding `O=C1CSC(=Nc2ccc(F)cc2)N1`, the Kd is > 4 mM (inactive).

`C/C=C/COc1nc2c(c(=O)n(C)c(=O)n2C)n1C`: the Kd was > 4 mM (inactive).

In the case of `Cc1noc(C)c1C(=O)NCc1cccs1`, the Kd is > 4 mM (inactive).

For the molecule `CC(=O)Oc1c(C)cc(O)c2ccccc12`, the Kd is > 4 mM (inactive).

On to `Cn1c(=O)[nH]c(=O)c2nsnc21`, for which the Kd is > 4 mM (inactive).

In the case of `NC(=O)c1ccc(-c2ccccn2)s1`, the Kd is > 4 mM (inactive).

With `O=c1[nH]nc(Cc2ccncc2)c2ccccc12`, the Kd is > 4 mM (inactive).

In the case of `c1ccc2c(c1)[nH]c1cnccc12`, the Kd is > 4 mM (inactive).

As to `O=c1c2ccccc2[nH]c2ncccc12`, the Kd is > 4 mM (inactive).

On to `CCOc1cc(S(=O)(=O)n2nc(C)cc2C)ccc1F`, for which the Kd was > 4 mM (inactive).

Consider `CNC(=S)Nc1ccc(C(=O)O)cc1`, for which the Kd was > 4 mM (inactive).

As to `Nc1cccc(CC(=S)N2CCOCC2)c1`, the Kd was > 4 mM (inactive).

Consider `COc1cc2cc[n+]3cc4c(OC)c(OC)ccc4cc3c2cc1OC`, for which the Kd is > 4 mM (inactive).

`CC1(C(=O)O)CC2C=CC1C2` (centres undefined): the Kd was > 4 mM (inactive).

For the molecule `CC(C)(OC(=O)c1ccccc1)[C@@H]1Cc2cc3ccc(=O)oc3cc2O1`, the Kd was > 4 mM (inactive).

`Nc1nsc(-c2ccccc2)n1`: the Kd was > 4 mM (inactive).

Take `c1cc2n(c1)CCNC2c1ccncc1` (centres undefined): the Kd is > 4 mM (inactive).

`CC12OC(=O)CC3C(C)(C)[C@H](O)C=C[C@]3(C)C1CC[C@]1(C)C2=CC(=O)O[C@H]1c1ccoc1` (some centres undefined): the Kd was > 4 mM (inactive).

Consider `CCOC(=O)c1sc(SC)c2c1CCCC2O` (centres undefined), for which the Kd is > 4 mM (inactive).

Take `Cc1nc2ccc(C(=O)O)cc2[nH]1`: the Kd was > 4 mM (inactive).

`Cc1cc(=O)n2[nH]c(N)nc2n1`: the Kd was > 4 mM (inactive).

Consider `Cc1ccc(C2NS(=O)(=O)N=C2N)cc1` (centres undefined), for which the Kd is > 4 mM (inactive).

On to `COc1ccc(Cl)c(S(=O)(=O)N2CCCC2)c1`, for which the Kd was > 4 mM (inactive).

Consider `COc1ccc([C@@H](C)C(=O)c2ccc(O)cc2O)cc1`, for which the Kd is > 4 mM (inactive).

`c1ccn(Cc2ccncc2)c1`: the Kd is > 4 mM (inactive).

Regarding `COc1ccccc1NC(=O)/C=N/O`, the Kd was > 4 mM (inactive).

Take `CC(=O)N1C(=S)NC(=O)/C1=C\c1cccnc1`: the Kd was > 4 mM (inactive).

For the molecule `O=C1NC(=S)NC(=O)C1=Cc1ccco1`, the Kd is > 4 mM (inactive).

In the case of `COC(=O)c1cncc(C(=O)OC)c1`, the Kd was > 4 mM (inactive).

In the case of `CCCCn1c(=O)cc(O)c2ccccc21`, the Kd is > 4 mM (inactive).

Take `O=C(O)CCc1nc2ccccc2[nH]c1=O`: the Kd was > 4 mM (inactive).

In the case of `NC(=O)CSc1ccc(Br)cc1`, the Kd was > 4 mM (inactive).

On to `Nc1ccncc1`, for which the Kd was > 4 mM (inactive).
